One assay addresses 5-HT2A receptors (Rattus norvegicus, UniProt P14842). The assay is described as follows: in-vitro affinity to 5-HT2A receptors, displacement of [3H]ketanserine (Example A1). The assay is classed as binding. The following applies: read-out: HT2A IC50. From the text: The 5-HT2A receptors are exposed both to [^3H]ketanserine (a substance which is known for its affinity to the receptor) and also to the test compound. The decrease in the affinity of [^3H]ketanserine to the receptor is an indication of the affinity of the test substance to the 5-HT2A receptor.
(In general: Loss of bound radioactivity is the signal in a displacement assay; it reports binding, not function.)
Sequence of 5-HT2A receptors (P14842 whole entry): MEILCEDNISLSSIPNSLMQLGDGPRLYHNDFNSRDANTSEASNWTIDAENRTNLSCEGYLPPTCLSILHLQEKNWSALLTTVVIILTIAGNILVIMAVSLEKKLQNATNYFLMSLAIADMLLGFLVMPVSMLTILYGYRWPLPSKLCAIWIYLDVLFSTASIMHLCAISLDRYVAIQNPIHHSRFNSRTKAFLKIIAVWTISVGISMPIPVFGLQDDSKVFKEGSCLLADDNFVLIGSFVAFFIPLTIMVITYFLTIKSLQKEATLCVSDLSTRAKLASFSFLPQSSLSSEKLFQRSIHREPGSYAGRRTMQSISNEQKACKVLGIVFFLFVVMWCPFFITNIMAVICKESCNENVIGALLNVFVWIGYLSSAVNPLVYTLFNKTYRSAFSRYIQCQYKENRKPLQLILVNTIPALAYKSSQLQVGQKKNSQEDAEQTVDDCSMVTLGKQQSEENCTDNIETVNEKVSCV
Consider `CCC1(O)CCN(Cc2cnn(-c3ccc(-c4ccccc4)cc3)c2-c2ccccc2F)CC1` [Example 1033, 1-[1-Biphenyl-4-yl-5-(2-fluorophenyl)-1H-pyrazol-4-ylmethyl]-4-ethylpiperidin-4-ol], for which the concentration for half-maximal inhibition (IC50) – broadly, the concentration at which inhibition is half-maximal – came to 280 nM. On the same count and under the same terms, to `O=C(CN1CCN(Cc2cnn(-c3ccc(-c4ccccc4)cc3)c2-c2ccccc2F)CC1)N1CCCC1` [Example 1038, 2-{4-[1-Biphenyl-4-yl-5-(2-fluoro-phenyl)-1H-pyrazol-4-ylmethyl]piperazin-1-yl}-1-pyrrolidin-1-ylethanone] belongs 311 nM; to `Fc1ccccc1-c1c(CNC2CN3CCC2CC3)cnn1-c1ccc(-c2ccccc2)cc1` (stereo not drawn) [Example 991, (1-Azabicyclo[2.2.2]oct-3-yl)-[1-biphenyl-4-yl-5-(2-fluorophenyl)-1H-pyrazol-4-ylmethyl]-amine], 140 nM; to `CN1CCN(Cc2cnn(-c3ccc(-c4cccnc4)cc3)c2-c2ccccc2F)CC1` [Example 1000, 1-[5-(2-Fluorophenyl)-1-(4-pyridin-3-ylphenyl)-1H-pyrazol-4-ylmethyl]-4-methylpiperazine], 170 nM.

As to `OC1CCN(Cc2cnn(-c3ccc(C(F)(F)F)cn3)c2-c2ccccc2F)C1` (stereo not drawn) [Example 1050, 1-[5-(2-Fluorophenyl)-1-(5-trifluoro-methylpyridin-2-yl)-1H-pyrazol-4-ylmethyl]pyrrolidin-3-ol], the IC50 was 390 nM.

On to `O=C(CN1CCN(Cc2cnn(-c3ccc(-c4ccccc4)cc3)c2-c2ccccc2F)CC1)N1CCCC1` [Example 985, 2-{4-[1-Biphenyl-4-yl-5-(2-fluoro-phenyl)-1H-pyrazol-4-ylmethyl]piperazin-1-yl}-1-pyrrolidin-1-ylethanone], for which the concentration for half-maximal inhibition (IC50) came to 122 nM. Turning to `Fc1ccc(F)c(-c2ccc(-n3ncc(CNCC4CCCO4)c3-c3ccccc3F)cc2)c1` (stereo not drawn) [Example 1044, [1-(2′,5′-Difluorobiphenyl-4-yl)-5-(2-fluoro-phenyl)-1H-pyrazol-4-ylmethyl](tetrahydro-furan-2-ylmethyl)amine], the IC50 amounted to 370 nM. On the same count and under the same terms, to `Cc1nn(-c2ccccc2)c(C)c1CN1CCN(C(=O)C(CCC(=O)O)N2C(=O)c3ccccc3C2=O)CC1` (stereo not drawn) [Example 1015] belongs 220 nM. With `CCN(CC)CC1CCCCN1Cc1cnn(-c2ccc(-c3ccccc3)cc2)c1-c1ccccc1F` (stereo not drawn) [Example 1028, {1-[1-Biphenyl-4-yl-5-(2-fluorophenyl)-1H-pyrazol-4-ylmethyl]piperidin-2-ylmethyl}-diethylamine], the IC50 amounted to 270 nM.

In the case of `Fc1ccccc1-c1c(CN2CCCCCC2)cnn1-c1ccc(-c2ccccc2)cc1` [Example 948, 1-[1-Biphenyl-4-yl-5-(2-fluorophenyl)-1H-pyrazol-4-ylmethyl]azepan], the half-inhibitory concentration (IC50) was 48 nM.

On to `CCc1ccc(-c2ccc(-n3ncc(CN4CCN(C)CC4)c3-c3ccccc3F)cc2)cc1` [Example 956, 1-[1-(4′-Ethylbiphenyl-4-yl)-5-(2-fluorophenyl)-1H-pyrazol-4-ylmethyl]-4-methylpiperazine], for which the IC50 turned out to be 57 nM.

The assay is the same for the next values; noted with them: target not given; description names affinity to 5-HT2A receptors; read-out: IC50.
In the case of `O=C1CCCN1CCCNCc1cnn(-c2ccc(-c3ccccc3)cc2)c1-c1ccccc1F` [(151), 1-(3-{[1-Biphenyl-4-yl-5-(2-fluorophenyl)-1H-pyrazol-4-ylmethyl]amino}propyl)pyrrolidin-2-one], the concentration for half-maximal inhibition (IC50) was found to be 64 nM.

In the case of `CN1CCN(Cc2cnn(-c3ccc(-c4ccccc4)nc3)c2-c2ccccc2F)CC1` [(57), 1-[5-(2-Fluorophenyl)-1-(6-phenylpyridin-3-yl)-1H-pyrazol-4-ylmethyl]-4-methylpiperazine], the IC50 was determined as 220 nM. Take `COCCN(C)Cc1cnn(-c2ccc(-c3cc(F)ccc3F)nc2)c1-c1ccccc1F` [(159), [1-[6-(2,5-Difluorophenyl)pyridin-3-yl]-5-(2-fluorophenyl)-1H-pyrazol-4-ylmethyl]-(2-methoxyethyl)-methylamine]: the concentration for half-maximal inhibition (IC50) was 1400 nM. Take `CCOC(=O)CNC(=O)CNCc1cnn(-c2ccc(-c3ccccc3)cc2)c1-c1ccccc1F` [(153), Ethyl (2-{[1-Biphenyl-4-yl-5-(2-fluorophenyl)-1H-pyrazol-4-ylmethyl]amino}ethanoylamino)acetate]: the half-maximal inhibitory concentration (IC50) was 1100 nM. Take `CN1CCC(N(C)Cc2cnn(-c3ccc(-c4ccccc4)cc3)c2-c2ccccc2F)C1` (stereo not drawn) [(168), [1-Biphenyl-4-yl-5-(2-fluorophenyl)-1H-pyrazol-4-ylmethyl]-methyl-(1-methylpyrrolidin-3-yl)amine]: the concentration for half-maximal inhibition (IC50) turned out to be 16 nM. With `CN(C)CCN(C)Cc1cnn(-c2ccc(-c3ccccc3)nc2)c1-c1ccccc1F` [(127), N-[5-(2-Fluorophenyl)-1-(6-phenylpyridin-3-yl)-1H-pyrazol-4-ylmethyl]-N,N′,N′-trimethylethane-1,2-diamine], the 50% inhibitory concentration (IC50) stood at 440 nM. Same read-out and setting: as for `CN1CCN(Cc2cnn(-c3ccc(-c4ccccc4)nc3)c2-c2cccnc2)CC1` [(198), 1-Methyl-4-[1-(6-phenylpyridin-3-yl)-5-pyridin-3-yl-1H-pyrazol-4-ylmethyl]piperazine], the figure is 140 nM.

Regarding `O=S1(=O)CCN(Cc2cnn(-c3ccc(-c4ccccc4)cc3)c2-c2ccccc2F)CC1` [(108), 4-[1-Biphenyl-4-yl-5-(2-fluorophenyl)-1H-pyrazol-4-ylmethyl]-thiomorpholine 1,1-dioxide], the IC50 amounted to 43 nM. For the molecule `CCC1(O)CCN(Cc2cnn(-c3ccc(-c4ccccc4)cc3)c2-c2ccccc2F)CC1` [(80), 1-[1-Biphenyl-4-yl-5-(2-fluorophenyl)-1H-pyrazol-4-ylmethyl]-4-ethylpiperidin-4-ol], the 50% inhibitory concentration (IC50) turned out to be 280 nM.

For `Fc1ccccc1-c1c(CN2CCc3ccccc3C2)cnn1-c1ccc(-c2ccccc2)cc1` [(36), 2-[1-Biphenyl-4-yl-5-(2-fluorophenyl)-1H-pyrazol-4-ylmethyl]-1,2,3,4-tetrahydroisoquinoline], the half-inhibitory concentration (IC50) was found to be 70 nM. On the same count and under the same terms, as for `CCOC(=O)CNCc1cnn(-c2ccc(-c3ccccc3)cc2)c1-c1cccnc1` [(117), Ethyl [(1-biphenyl-4-yl-5-pyridin-3-yl-1H-pyrazol-4-ylmethyl)-amino]acetate], the figure is 940 nM; as for `COC(=O)CCNCc1cnn(-c2ccc(-c3ccccc3)cc2)c1-c1ccccc1F` [(112), Methyl 3-{[1-biphenyl-4-yl-5-(2-fluorophenyl)-1H-pyrazol-4-ylmethyl]amino}propionate], 210 nM; as for `Fc1ccccc1-c1c(CN2CCOCC2)cnn1-c1ccc(-c2ccccc2)cc1` [(28), 4-[1-Biphenyl-4-yl-5-(2-fluorophenyl)-1H-pyrazol-4-ylmethyl]-morpholine], 1100 nM. On the same count and under the same terms, to `CN1CCC(N(C)Cc2cnn(-c3ccc(-c4ccc(F)cc4)nc3)c2-c2ccccc2F)CC1` [(143), {5-(2-Fluorophenyl)-1-[6-(4-fluorophenyl)pyridin-3-yl]-1H-pyrazol-4-ylmethyl}methyl-(1-methylpiperidin-4-yl)amine] belongs 250 nM; to `COCCN(C)Cc1cnn(-c2ccc(-c3ccccc3F)nc2)c1-c1ccccc1F` [(157), {5-(2-Fluorophenyl)-1-[6-(2-fluorophenyl)pyridin-3-yl]-1H-pyrazol-4-ylmethyl}-(2-methoxyethyl)methylamine], 2000 nM.

As to `CN1CCN(Cc2cnn(-c3ccc(-c4cc(F)ccc4F)cc3)c2-c2ccc(F)cc2)CC1` [(101), 1-[1-(2′,5′-Difluorobiphenyl-4-yl)-5-(4-fluorophenyl)-1H-pyrazol-4-ylmethyl]-4-methylpiperazine], the IC50 worked out at 240 nM.

These data come from US20060264419A1 (priority 2003, published 2006).
